Data set [1] in a line: in vitro. To be noted: human, Caco-2.
A short description of data set [2]: in vitro. The conditions noted are these: human, Caco-2. This is another data set of the same source.
A short description of data set [3]: Volume of distribution at steady state in AP Wistar rat at 2.1 to 4.0 mg/kg, iv and 8.1 to 8.9 mg/kg, po. The class given is ADME, organism-based. The conditions noted are these: in vivo, read-out: Vdss.
Data set [4] is described as follows: Clearance in AP Wistar rat at 2.1 to 4.0 mg/kg, iv and 8.1 to 8.9 mg/kg, po. To be noted: in vivo. The class given is ADME, organism-based.
Data set [5] in a line: Half life in AP Wistar rat at 2.1 to 4.0 mg/kg, iv and 8.1 to 8.9 mg/kg, po. The class given is ADME, organism-based. To be noted: in vivo.
Data set [6] is described as follows: Bioavailability in AP Wistar rat at 2.1 to 4.0 mg/kg, iv and 8.1 to 8.9 mg/kg, po. Format: ADME, organism-based. The conditions noted are these: in vivo, at 8.1 to 8.9 mg/kg.

In turn, `O=C(O)CN1C(=O)C(NC(=O)c2cc3sc(Cl)c(Cl)c3[nH]2)Cc2ccccc21` (stereo not given) had a Papp A→B in “in vitro [1]” of 0.3 ×10⁻⁶ cm/s. In “in vitro [2]”, this compound came in with a Papp B→A of 11 ×10⁻⁶ cm/s.
For `O=C(CN1C(=O)C(NC(=O)c2cc3cc(Cl)sc3[nH]2)Cc2ccccc21)NCCO` (stereo not given), the Vd in data set [3] worked out at 1.4 L/kg. For the same compound, in data set [4], the clearance came to 5.1 mL/min/kg. The compound further showed a half-life in data set [5] of 5.4 h. In data set [6], this compound showed a bioavailability of 12%.
For `NC(=O)CN1C(=O)C(NC(=O)c2cc3cc(Cl)sc3[nH]2)Cc2ccccc21` (stereo not given) the same measures were 1.4 L/kg, 1.2 mL/min/kg, 16 h and 35%.
For the compound `O=C(NC1Cc2ccccc2N(C[C@@H](O)CO)C1=O)c1cc2cc(Cl)sc2[nH]1` (mixture of isomers), in data set [3], the Vd turned out to be 1.9 L/kg. For the same compound, the clearance in data set [4] worked out at 2.4 mL/min/kg. The half-life in data set [5] was 11 h. This compound yielded a bioavailability in data set [6] above 100%. Further, the Papp A→B in the data set “in vitro [1]” came out at 29 ×10⁻⁶ cm/s. In “in vitro [2]”, this compound returned a Papp B→A of 29 ×10⁻⁶ cm/s.
As for `O=C(NC1Cc2ccccc2N(CC(CO)CO)C1=O)c1cc2cc(Cl)sc2[nH]1` (racemic), the Vd in data set [3] was found to be 2.2 L/kg. Moreover, the clearance in data set [4] came out at 2.5 mL/min/kg. This compound gave a half-life in data set [5] of 13 h. Further, the bioavailability in data set [6] was determined as 41%.

As usually defined, the Papp A→B is how fast a substance crosses the layer from the apical side. A higher Papp A→B goes with ready permeation. For orientation: Papp B→A means how fast a substance crosses the layer from the basolateral side. In general, half-life refers to the time in which the quantity being followed falls by half. Read a low half-life as fast loss. By bioavailability is commonly meant dose-corrected exposure relative to a reference, in per cent. A higher bioavailability goes with good availability.
